Assay results taken from ChEMBL document CHEMBL1141006, “2-Arylimino-5,6-dihydro-4H-1,3-thiazines as a new class of cannabinoid receptor agonists. Part 3: Synthesis and activity of isosteric analogs” (Bioorg Med Chem Lett, 2008).

Legend:
[1] = target: Cannabinoid receptor 2 (Homo sapiens, UniProt P34972); assay: Binding affinity to human CB2 receptor
[2] = target: T1, Cannabinoid receptor 1 (Homo sapiens, UniProt P21554); assay: Binding affinity to human CB1 receptor
[3] = test system: Mus musculus; assay: Analgesic activity against po dosed ddY mouse assessed as time spent motionless on the ring for 5 mins by ring catalepsy test; assay type: functional
[4] = test system: Mus musculus; assay: Analgesic activity against formalin-induced acute pain in po dosed ICR mouse assessed as paw licking for 0 to 5 mins; assay type: functional
[5] = target: T1, Cannabinoid receptor 1; assay: Binding affinity to human CB1 receptor expressed in CHO cells assessed as inhibition of cAMP accumulation; assay type: functional, cell-based
[6] = Half life in rat at 2 mg/kg, iv and 3 mg/kg, po; assay type: ADME, organism-based; conditions: in vivo
[7] = AUC in rat at 3 mg/kg, po; assay type: ADME, organism-based; set-up: dose 3 mg/kg, route oral; conditions: plasma
[8] = Total clearance in rat at 2 mg/kg, iv and 3 mg/kg, po; assay type: ADME, organism-based; conditions: in vivo
[9] = Oral bioavailability in rat at 3 mg/kg; assay type: ADME, organism-based; conditions: in vivo
[10] = species on record: Mus musculus; assay: Ratio of ED50 for analgesic activity in ddY mouse by ring-catalepsy test to ED50 for analgesic activity against formalin-induced inflammatory pain in ICR mouse; assay type: functional
[11] = Cmax in rat at 2 mg/kg, iv and 3 mg/kg, po; assay type: ADME, organism-based; conditions: in vivo
[12] = test system: Mus musculus; assay: Analgesic activity against formalin-induced inflammatory pain in po dosed ICR mouse assessed as paw licking for 10 to 30 mins; assay type: functional
[13] = target: Cannabinoid receptor 1 (Mus musculus, UniProt P47746); assay: Binding affinity to mouse CB1 receptor
Sequence of Cannabinoid receptor 1 (Mus musculus, UniProt P47746) (P47746 whole entry): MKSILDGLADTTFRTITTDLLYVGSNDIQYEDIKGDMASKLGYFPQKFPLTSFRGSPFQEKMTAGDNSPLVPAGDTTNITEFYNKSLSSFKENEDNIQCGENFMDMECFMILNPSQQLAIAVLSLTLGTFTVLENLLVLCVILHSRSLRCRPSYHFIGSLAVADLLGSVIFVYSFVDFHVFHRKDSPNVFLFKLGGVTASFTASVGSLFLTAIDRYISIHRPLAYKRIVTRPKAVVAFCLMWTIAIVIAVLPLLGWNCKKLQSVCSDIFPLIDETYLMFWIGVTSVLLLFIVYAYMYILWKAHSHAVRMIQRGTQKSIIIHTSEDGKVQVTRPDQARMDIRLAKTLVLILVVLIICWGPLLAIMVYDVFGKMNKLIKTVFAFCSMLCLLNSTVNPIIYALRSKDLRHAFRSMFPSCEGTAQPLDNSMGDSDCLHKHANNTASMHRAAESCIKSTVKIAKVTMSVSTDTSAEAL

Sequence of Cannabinoid receptor 2 (P34972 whole entry): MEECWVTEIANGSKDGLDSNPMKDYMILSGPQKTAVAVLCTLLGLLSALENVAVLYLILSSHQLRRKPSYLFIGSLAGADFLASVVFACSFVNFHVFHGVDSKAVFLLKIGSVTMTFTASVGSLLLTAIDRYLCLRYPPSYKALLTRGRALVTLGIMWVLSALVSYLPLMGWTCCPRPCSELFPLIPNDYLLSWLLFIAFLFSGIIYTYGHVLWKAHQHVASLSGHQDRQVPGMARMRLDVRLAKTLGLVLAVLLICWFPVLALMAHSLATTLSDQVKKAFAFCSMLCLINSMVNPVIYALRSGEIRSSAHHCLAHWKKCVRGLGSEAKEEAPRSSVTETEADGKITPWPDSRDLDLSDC
T1 sequence (P21554 whole entry): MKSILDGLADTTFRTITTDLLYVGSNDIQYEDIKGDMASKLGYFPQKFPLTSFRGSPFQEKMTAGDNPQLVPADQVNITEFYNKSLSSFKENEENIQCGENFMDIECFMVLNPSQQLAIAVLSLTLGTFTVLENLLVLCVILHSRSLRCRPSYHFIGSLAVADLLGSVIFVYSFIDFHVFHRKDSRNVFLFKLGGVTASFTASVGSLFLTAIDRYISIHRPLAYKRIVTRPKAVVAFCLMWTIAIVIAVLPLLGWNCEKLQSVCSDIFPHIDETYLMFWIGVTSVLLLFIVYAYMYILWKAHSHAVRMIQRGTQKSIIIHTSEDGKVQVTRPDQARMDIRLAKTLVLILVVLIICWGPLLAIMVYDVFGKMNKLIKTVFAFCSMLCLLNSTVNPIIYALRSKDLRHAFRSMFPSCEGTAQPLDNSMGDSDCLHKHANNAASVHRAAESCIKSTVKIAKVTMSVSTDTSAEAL

`CSC(=S)N1CC2(CCCCC2)CO/C1=N\c1ccc(N(C)C)c2ccccc12` gave a Ki [1] of 6.6 nM and a Ki [2] of 4.9 nM.
With `CSC(=S)N1CC2(CCCCC2)CO/C1=N\c1cccc2c1CCCC2` the Ki [1] was 1 nM and the Ki [2] was 14 nM.
For `CSC(=S)N1CC2(CCCCC2)CO/C1=N\c1cccc2nonc12`, the Ki [1] was 6.8 nM and the Ki [2] was 152 nM.
For `CSC(=O)N1CC2(CCCCC2)CN/C1=N\c1cccc2ccccc12`, the Ki [1] was 155 nM and the Ki [2] was 624 nM.
In the case of `CSC(=S)N1CC2(CCCCC2)CO/C1=N\c1nc(C(C)(C)C)cs1`, the Ki [1] is reported as 1 nM and the Ki [2] is reported as 1 nM.
In the case of `CSC(=S)N1CC2(CCCCC2)CO/C1=N\c1ccc(Cl)c2ccccc12`, the ED50 [3] is reported as 25.6 mg/kg, the ED50 [4] is reported as 1.9 mg/kg and the IC50 [5] is reported as 8 nM. The half-life [6] was 2.2 h, the Ki [1] was 0.9 nM and the AUC [7] was 1210 ng·h/mL. The clearance [8] was 14.7 mL/min/kg, the bioavailability [9] was 35% and the “Ratio ED50” value [10] was 40. The Cmax [11] was 280 ng/mL, the Ki [2] was 3.4 nM and the ED50 [12] was 0.64 mg/kg. For the same compound, the Ki [13] was 0.7 nM.
`CSC(=S)N1CC2(CCCCC2)CO/C1=N\c1ccc(C#N)c2c1CCCC2` showed a Ki [1] of 1.9 nM and a Ki [2] of 101 nM.
With `CSC(=S)N1CC2(CCCCC2)CO/C1=N\c1cc(C(C)(C)C)on1` the Ki [1] was 4.7 nM and the Ki [2] was 17 nM.
In the case of `CSC(=S)N1CC2(CCCCC2)CS/C1=N\c1cccc2ccccc12`, the ED50 [3] is reported as 19.2 mg/kg, the ED50 [4] is reported as 1.5 mg/kg and the IC50 [5] is reported as 10 nM. The AUC [7] was 1390 ng·h/mL, the bioavailability [9] was 80% and the “Ratio ED50” value [10] was 19.2. For the same compound, the Cmax [11] was 160 ng/mL and the ED50 [12] was 1 mg/kg.
With `CSC(=S)N1CC2(CCCCC2)CO/C1=N\c1ccc(F)c2ccccc12` the Ki [1] was 0.8 nM and the Ki [2] was 4.9 nM.
For `CSC(=S)N1CC2(CCCCC2)CO/C1=N\c1ccc(C#N)c2ccccc12`, the Ki [1] was 1.8 nM and the Ki [2] was 9.2 nM.
`CSC(=S)N1CC2(CCCCC2)CO/C1=N\c1cc(C(C)(C)C)no1` showed a Ki [1] of 1 nM and a Ki [2] of 0.9 nM.
Work on `CSC(=S)N1CC2(CCCCC2)CO/C1=N\c1ccc(Cl)c2c1CCCC2` yielded a Ki [1] of 5.8 nM and a Ki [2] of 76 nM.
Work on `CCC(CC)(CC)c1cc(/N=C2\OCC3(CCCCC3)CN2C(=S)SC)on1` yielded a Ki [1] of 1 nM and a Ki [2] of 1 nM.
With `COc1ccccc1/N=C1\OCC2(CCCCC2)CN1C(=S)SC` the Ki [1] was 0.9 nM and the Ki [2] was 59 nM.
With `CSC(=O)N1CC2(CCCCC2)CO/C1=N\c1cccc2ccccc12` the Ki [1] was 5.8 nM and the Ki [2] was 31 nM.
`CSC(=S)N1CC2(CCCCC2)CO/C1=N\c1ccc([N+](=O)[O-])c2ccccc12` showed a Ki [1] of 2.4 nM and a Ki [2] of 14 nM.
In the case of `CSC(=S)N1CC2(CCCCC2)CO/C1=N\c1cccc2ccccc12`, the Ki [1] is reported as 0.9 nM and the Ki [2] is reported as 9.3 nM.
In the case of `CSC(=O)N1CC2(CCCCC2)CS/C1=N\c1cccc2ccccc12`, the Ki [1] is reported as 1.5 nM and the Ki [2] is reported as 49 nM.
For `CSC(=S)N1CC2(CCCCC2)CO/C1=N\c1ccccc1`, the Ki [1] was 11 nM and the Ki [2] was 515 nM.
